{
  "source": "patent US6417384B1",
  "about": "“Radioiodinated phospholipid ether analogs and methods of using the same” (The Regents of the University of Michigan, priority 1999, dated 2002)",
  "type_in_all_cases": "in vivo, rat",
  "key": {"[1]": {"tested_on": "rats bearing Walker-256 tumor", "test": "Biodistribution studies with Walker-256 carcinosarcoma", "conditions": "i.v., Walker-256 tumor-bearing rats, mean ± SEM", "description": "The three radiolabelled compounds illustrated in FIG. 5, including the improved C-18 analog 18-(p-iodophenyl)octadecyl phosphocholine (Compound XVI) described in Example 2, were prepared and administered to two sets of female Sprague Dawley rats (Charles River, Portage, Mich.). One normal set was used as a control, and one set was inoculated with Walker-256 carcinosarcoma cells (5×10^6 cells) in 0.2 ml saline in the right hindlimb. The Walker carcinoma cell line was provided by Dr. James Varani of the Department of Pathology at the University of Michigan, and is an accepted cell line representative of effect in humans. See, e.g. Tayck et al., “Influence of the Walker 256 Carcinosarcoma on Muscle, Tumor, and Whole-Body Protein Synthesis and Growth Rate in the Cancer-Bearing Rat, Cancer Res. 46:5649-54 (1986).\nThe animals were used 6-8 days later when the tumor weight averaged 10 g. The radiolabelled compounds were dissolved in absolute ethanol (50-500 μl) and Tween-20 (0.1 ml/mg of compound) was added to the solution. Ethanol was removed by evaporation under a stream of nitrogen. Physiological saline or sterile water was added, to give a 2-3% Tween-20 solution which was subsequently mixed by vortex. The solubilized radiolabelled compounds (5-10 μCi, 0.3 ml) were administered intravenously via the tail vein to tumor bearing rats, and the animals were sacrificed by exsanguination while under ether anesthesia at the various time points. Blood samples were collected through cardiac puncture and selected tissues (liver, kidney, etc.) were removed, trimmed, blotted to remove excess blood and weighed. Large organs were thoroughly minced with scissors to obtain random representative tissue samples.\nFor the biodistribution experiments with 12-(p-iodophenyl)dodecyl phosphocholine, weighed tissue samples were counted with a well scintillation counter (85% counting efficiency). The concentration of radioactivity in each tissue was expressed as a percentage of administered dose per gram of tissue.\nTissue distribution was assessed at various times following administration of the radioiodinated chain length isomers. The results are expressed as the mean % administered dose per gram±SEM (% Dose/g±SEM)."}, "[2]": {"tested_on": "rats bearing Dunning (MATLyLu) prostate tumors", "test": "Biodistribution studies with Dunning prostate tumor", "conditions": "i.v., Dunning MAT-LyLu prostate tumor-bearing rats, mean ± SEM", "description": "The three radiolabelled compounds illustrated in FIGS. 7A-7C, including the improved C-18 analogs 18-(p-iodophenyl)octadecyl phosphocholine (Compound XVI—FIG. 7B) and 1-O-[18-(p-iodophenyl)octadecyl]-1,3-propanediol-3-phosphocholine (Compound XIV—FIG. 7C) described in Examples 2 and 3, respectively, were prepared and administered to two sets of male Copenhagen rats (Harlan Sprague-Dawley, Indianapolis, Ind.). One group of normal animals was used as a control, and another group was inoculated with Dunning prostate tumor cells (1×10^6 MAT-LyLu cells) in 0.2 ml saline in the right hindlimb. The MAT-LyLu subline of the Dunning (R-3327) adenocarcinoma prostate tumor was provided by Dr. Ken Pienta of the Department of Urology at the University of Michigan, and is an accepted cell line representative of effect in humans. See, e.g., Pienta et al., “Inhibition of Spontaneous Metastasis in a Rat Prostrate Cancer Model by Oral Administration of Modified Citrus Pectin, J. Natl. Cancer Inst. 87:348-53 (1995).\nThe animals were maintained with free access to food and water until day 8-10. The radioiodinated phospholipid ether analog formulated in 2% Tween 20—sterile water (5-10 μCi, 0.3-0.4 ml, described above in Example 6) was administered intravenously into the tail vein of the tumor-bearing animals under metofane anesthesia. The animals were euthanized at selected time points after injection (n=3 per time point) and samples of blood, plasma and a variety of tissues including tumor and prostate are collected and analyzed for radioiodine content. Biodistribution values are calculated as the mean of the individual % administered dose per gram of tissue and % dose per organ values."}, "[3]": {"tested_on": "Dunning R3327 prostate tumor-bearing animals", "test": "Gamma camera scintigraphy studies with Dunning R3327 prostate tumor", "conditions": ">40 μCi injected, 125I window, static fifteen-minute images", "description": "Comparative in vivo scintigaphic studies were also conducted using the C-12 analog 12-(p-iodophenyl)dodecyl phosphocholine and the C-18 analogs 18-(p-iodophenyl)octadecyl phosphocholine (Compound XVI) and 1-O-[18-(p-iodophenyl)octadecyl]-1,3-propanediol-3-phosphocholine (Compound XIV) utilized in Example 7. The imaging studies were performed on Dunning R3327 prostate tumor-bearing animals injected with >40 μCi of the radioiodinated phospholipid ether formulations described above. The anesthetized animals were imaged at selected times after injection on a gamma camera set to the ^125I window and outfitted with a low energy collimator. Static fifteen-minute images were obtained for each animal at the specified time. The results are illustrated in FIGS. 8A-8C."}},
  "data": [
    {"substance": "12-(p-iodophenyl)dodecyl phosphocholine [C-12 Analog]", "values": [
      {"measurement": "mean % administered dose per gram, Adrenal", "setting": "[1]; 24 hr", "value": "0.33 ± 0.01", "unit": "% Dose/g"},
      {"measurement": "mean % administered dose per gram, Adrenal", "setting": "[1]; 48 hr", "value": "0.29 ± 0.01", "unit": "% Dose/g"},
      {"measurement": "mean % administered dose per gram, Blood", "setting": "[1]; Blood, 24 hr", "value": "0.27 ± 0.04", "unit": "% Dose/g"},
      {"measurement": "mean % administered dose per gram, Blood", "setting": "[1]; Blood, 48 hr", "value": "0.27 ± 0.03", "unit": "% Dose/g"},
      {"measurement": "blood levels", "setting": "[1]; Blood, 120 hours", "value": "0.22±0.03", "unit": "% Dose/g"},
      {"measurement": "mean % administered dose per gram, Duodenum", "setting": "[1]; 24 hr", "value": "1.35 ± 0.13", "unit": "% Dose/g"},
      {"measurement": "mean % administered dose per gram, Duodenum", "setting": "[1]; 48 hr", "value": "0.77 ± 0.06", "unit": "% Dose/g"},
      {"measurement": "mean % administered dose per gram, Kidney", "setting": "[1]; 24 hr", "value": "4.10 ± 0.44", "unit": "% Dose/g"},
      {"measurement": "mean % administered dose per gram, Kidney", "setting": "[1]; 48 hr", "value": "3.44 ± 0.08", "unit": "% Dose/g"},
      {"measurement": "mean % administered dose per gram, Liver", "setting": "[1]; 24 hr", "value": "1.62 ± 0.17", "unit": "% Dose/g"},
      {"measurement": "mean % administered dose per gram, Liver", "setting": "[1]; 48 hr", "value": "1.37 ± 0.01", "unit": "% Dose/g"},
      {"measurement": "mean % administered dose per gram, Lung", "setting": "[1]; 24 hr", "value": "1.06 ± 0.04", "unit": "% Dose/g"},
      {"measurement": "mean % administered dose per gram, Lung", "setting": "[1]; 48 hr", "value": "0.53 ± 0.01", "unit": "% Dose/g"},
      {"measurement": "mean % administered dose per gram, Plasma", "setting": "[1]; 24 hr", "value": "0.39 ± 0.05", "unit": "% Dose/g"},
      {"measurement": "mean % administered dose per gram, Plasma", "setting": "[1]; 48 hr", "value": "0.39 ± 0.05", "unit": "% Dose/g"},
      {"measurement": "mean % administered dose per gram, Tumor", "setting": "[1]; 24 hr", "value": "2.99 ± 0.34", "unit": "% Dose/g"},
      {"measurement": "mean % administered dose per gram, Tumor", "setting": "[1]; 48 hr", "value": "1.84 ± 0.09", "unit": "% Dose/g"},
      {"measurement": "mean % administered dose per gram, Adrenal", "setting": "[2]; 24 hr", "value": "0.29 ± 0.01", "unit": "% Dose/g"},
      {"measurement": "mean % administered dose per gram, Adrenal", "setting": "[2]; 48 hr", "value": "0.23 ± 0.01", "unit": "% Dose/g"},
      {"measurement": "mean % administered dose per gram, Blood", "setting": "[2]; 24 hr", "value": "0.23 ± 0.02", "unit": "% Dose/g"},
      {"measurement": "mean % administered dose per gram, Blood", "setting": "[2]; 48 hr", "value": "0.22 ± 0.01", "unit": "% Dose/g"},
      {"measurement": "mean % administered dose per gram, Kidney", "setting": "[2]; 24 hr", "value": "4.45 ± 0.27", "unit": "% Dose/g"},
      {"measurement": "mean % administered dose per gram, Kidney", "setting": "[2]; 48 hr", "value": "3.38 ± 0.43", "unit": "% Dose/g"},
      {"measurement": "mean % administered dose per gram, Liver", "setting": "[2]; 24 hr", "value": "1.27 ± 0.02", "unit": "% Dose/g"},
      {"measurement": "mean % administered dose per gram, Liver", "setting": "[2]; 48 hr", "value": "1.05 ± 0.03", "unit": "% Dose/g"},
      {"measurement": "mean % administered dose per gram, Lung", "setting": "[2]; 24 hr", "value": "0.48 ± 0.03", "unit": "% Dose/g"},
      {"measurement": "mean % administered dose per gram, Lung", "setting": "[2]; 48 hr", "value": "0.33 ± 0.02", "unit": "% Dose/g"},
      {"measurement": "mean % administered dose per gram, Plasma", "setting": "[2]; 24 hr", "value": "0.32 ± 0.03", "unit": "% Dose/g"},
      {"measurement": "mean % administered dose per gram, Plasma", "setting": "[2]; 48 hr", "value": "0.32 ± 0.01", "unit": "% Dose/g"},
      {"measurement": "mean % administered dose per gram, Tumor", "setting": "[2]; 24 hr", "value": "0.37 ± 0.03", "unit": "% Dose/g"},
      {"measurement": "mean % administered dose per gram, Tumor", "setting": "[2]; 48 hr", "value": "0.30 ± 0.01", "unit": "% Dose/g"},
      {"measurement": "tumor localization in gamma camera scintigraphy images", "setting": "[3]", "value": "tumor was barely visible"}
    ]}
  ]
}
